The values below come from EPA's ToxValDB 9.5.

The structures appear in SMILES notation. Several values for one entry are separate records, joined by “and”; a condition that tells them apart may be missing. Equal entries are not always repeated.

For data set [1], the system named is Rattus norvegicus. The following applies: oral.
Data set [2] deals with Oryctolagus sp. Particulars: developmental; oral; gavage; Prominent liver lobulation.
The subject of data set [3] is Rattus norvegicus. Nature of the data set: LD5; higher = less toxic. Particulars: developmental, oral, drinking water, M/F, Wistar.
Data set [4] deals with Cavia porcellus. The following applies: uterotrophic; duration: 12 days; injection; subcutaneous; Guinea Pig; Active.
Data set [5] has as its system Mus musculus. Particulars: oral.
Data set [6] deals with Mus musculus. Particulars: developmental; oral; diet; M/F; Swiss-Webster; Nervous.
Data set [7] deals with Dog, Mouse, Rat. Particulars: oral; Effects on the reproductive system and developing nervous system.
The test system of data set [8] is Bacteria. Particulars: In vitro / microbiological; Growth inhibition.
Data set [9] relates to Rattus norvegicus. The following applies: developmental, M/F, Wistar, developmental.
Data set [10] concerns Chalcophaps sp. Particulars: oral.
For data set [11], the system named is Mus musculus. Particulars: repeat dose other; oral.
For data set [12], the system named is Cavia porcellus. Particulars: chronic; oral; M/F; Guinea Pig; increased relative liver weight.
The subject of data set [13] is Rattus norvegicus. Particulars: Hershberger, duration: 10 days, oral, gavage, active + Antiandrogenic + anti-androgenic + significant increase in liver wt at 100 and greater / significant decrease in AST and increase ….
Data set [14] has as its system Rattus norvegicus. The following applies: developmental, oral, gavage, M, Wistar, generation: F1.
Data set [15] concerns Cavia porcellus. Particulars: subchronic; duration: 90 days; oral; M/F; Guinea Pig; ototoxicity.

On to `Cc1cc(C)[nH]c(=O)n1.O=C(Nc1ccc([N+](=O)[O-])cc1)Nc1ccc([N+](=O)[O-])cc1` [1,3-Bis(4-nitrophenyl)urea 4,6-dimethylpyrimidin-2-ol (1:1)], for which, in data set [1] (reproduction developmental, gavage, M/F, CD/CRJ, Maternal mortality & decreased bodyweight gain & feed consumption / decreased bodyweight & various malformations in offspring), the NOEL was determined as 200 mg/kg-day. Also, in data set [2], the NOAEL (usually the highest dose or exposure tested at which no adverse effect was seen) came out at 60 mg/kg-day.
`CCC(C)O` (centres undefined) [2-Butanol]: in [3], the LD5 turned out to be 657 mg/kg-day.
The molecule `CC/C(=C(\c1ccc(O)cc1)c1ccc(OCCN(C)C)cc1)c1ccccc1` [4-Hydroxytamoxifen] registered an LEL in [4] of 0.1 mg/day.
In the case of `[Al]` [Aluminum], in data set [5] (chronic, duration: 24 months, diet, M/F, Swiss-Webster, neurological), the LOAEL (commonly the lowest dose or exposure tested at which an adverse effect was seen) was determined as 100 mg/kg-day. Further, the NOAEL in data set [5] (developmental, duration: 364 days, diet, M/F, Swiss-Webster, neurological) was 26 mg/kg-day; in [1] (developmental, drinking water, Renal damage (hydronephrosis, urethral dilatation, obstruction and/or presence of calculi) and reduced grip strength, but not cognitive …), 30 mg/kg-day. For the same molecule, in [6], the “LOAEL (mg Al/kg-day)” value turned out to be 100. Also, in data set [7], the LOEL is 50 mg/kg-day and 75 mg/kg-day.
As to `CN[C@@H]1[C@@H](O[C@H]2O[C@H](CO)[C@@H](N)[C@H](O)[C@H]2O)O[C@H]2C[C@@H](N)[C@@H](O[C@H]3[C@H](O)[C@@H](O)[C@H](N)C[C@@H]3N)O[C@@H]2[C@@H]1O` [Apramycin], in data set [8], the NOAEC was 8.3 µg/mL.
Take `CCCCC(CC)COC(=O)c1ccccc1C(=O)OCC(CC)CCCC` (centres undefined) [Di(2-ethylhexyl) phthalate]: the LOAEL came out at 4.79 mg/m3 in data set [9] (duration: 9 weeks, inhalation, whole body); 1 mg/kg-day in [9] (duration: 12 days, oral, gavage); 0.04 mg/kg-day in data set [5] (developmental, duration: 20 days, gavage, F, CD1, developmental); 183 mg/kg-day in data set [11]; 19 mg/kg-day in data set [12]. Besides, the NOAEL amounted to 1.1 mg/kg-day in data set [10] and 18.3 mg/kg-day in data set [11]. The LOEL was 300 mg/kg-day and 100 mg/kg-day in data set [13] (Sprague-Dawley); 300 mg/kg-day and 200 mg/kg-day in data set [13] (Wistar); 405 mg/kg-day in [14] (F1: AGD (mm)). Besides, the results for the NOEL in data set [13] (Wistar), in [14] (F1: AGD (mm)) and in data set [14] (F1: Hypospadias (% litters affected) + F1: Hypospadias (litters affected incidence)) were 100 mg/kg-day, 135 mg/kg-day and 405 mg/kg-day, respectively.
In the case of `NC[C@@H]1O[C@H](O[C@H]2[C@@H](O)[C@H](O[C@@H]3[C@@H](O)[C@H](N)C[C@H](N)[C@H]3O[C@H]3O[C@H](CN)[C@@H](O)[C@H](O)[C@H]3N)O[C@@H]2CO)[C@H](N)[C@@H](O)[C@@H]1O` [Neomycin], the NOEL in data set [15] turned out to be 6 mg/kg-day.
